Experimental data from patent publication US12041933B1, “N-(pyrimidin-2-ylcarbamothioyl) benzamide as an eco-friendly insecticidal agent against Spodoptera littoralis (BOISD.)” (KING FAISAL UNIVERSITY, priority 2023, dated 2024).
Converted amounts (≈) assume the structure as drawn. Read-outs that look alike come from different tables or passages of the source.

Test system: cotton leafworm, S. littoralis
Assay: Insecticidal bioassay screening (castor leaf dip), second and fourth instar larvae, laboratory strain
Format: in vivo
Details: for Toxicity index %: 72 hrs, Diflubenzuron's LC50/compound's LC50 × 100; for LC50: Spodoptera littoralis, foliar
Experimental: Five concentrations (200, 100, 50, 25, 12.5 ppm) were designed for this synthetic compound and the reference Diflubenzuron compound as the dynamic ingredients based on mg/L via diluting the commercial formulation.
In this experiment, castor leaves are immersed in each of the previously prepared concentrations of the components for 10 seconds and then left to dry for 60 minutes. Larvae of the second and fourth instars of each checked strain are prepared with treated leaves in gauze-covered glass containers for 72 hrs. An untreated control is made in which leaves are dipped in triton x-100 and distilled water only. Then the preserved leaves were removed & fresh, untreated leaves were provided for 72 hours. Three replicates (10 larvae each) were checked for each concentration. Daily inspection was carried out for all treatments and mortality percentages were recorded 3 days (72 hours) after treatment. The average mortality percentage was corrected employing Abbott's formula. The corrected mortality rate for each of the previously synthesized compounds is statistically calculated according to Finney (1970). Through this rate, the corresponding concentration test lines (LDP lines) are assessed.

[1] = 72 h, read-out: LC50 (mg/L) at 95%, 2nd instar larvae, after 72 hrs of treatment
[2] = 72 h, read-out: LC50 (mg/L) at 95%, 4th instar larvae, after 72 hrs of treatment
[3] = against Spodoptera littoralis under laboratory conditions, instar not stated

Row | Structure (SMILES) | Toxicity index % (2nd instar larvae) | Toxicity index % (4th instar larvae) | LC50 (72 h, 4th instars of larvae, after 72 hours of treatment) | LC50 [1] | LC50 [2] | LC50 [3]
1 | O=C(NC(=S)Nc1ncccn1)c1ccccc1 [Compound 3, N-(Pyrimidin-2-ylcarbamothioyl) benzamide] | 16.7% | 22.8% | ~631 mg/L (≈ 2440 µM) | ~96.8 mg/L (≈ 375 µM) | 631 mg/L (≈ 2440 µM) | 96.8 mg/L (≈ 375 µM)
2 | O=C(NC(=O)c1c(F)cccc1F)Nc1ccc(Cl)cc1 [Diflubenzuron, reference compound] | 100% | 100% |  | 45.2 mg/L (≈ 145 µM) | 144 mg/L (≈ 464 µM) | 45.2 mg/L (≈ 145 µM)
